Consider one compound from US20180344726A1, “ABUSE RESISTANT TRANSDERMAL DELIVERY DEVICES AND COMPOSITIONS COMPRISING AN OPIOID AGONIST AND A NON-TRANSDERMALLY DELIVERED N-OXIDE DERIVATIVE OF AN OPIOID ANTAGONIST FOR THE TREATMENT OF PAIN” (priority 2015, published 2018).

Read-outs that look alike come from different tables or passages of the source.

Holding throughout (format): physicochemical
The nature of series [1]: pKa analysis by pH-metric triple titration. Conditions: aqueous solution, […] C., […] KCl, read-out: pKa. The protocol:
(§1) pKa analysis was performed using a pH-metric method. […] No precipitation or degradation was observed and two pKas were determined from the potentiometric data. Log P was determined using the potentiometric (pH-metric method). The sample was titrated in various ratios of octanol/water in two titrations covering the pH range 2.0-12.0 at concentrations of 1.9-1.1 mM. The shift of the aqueous pKas in the presence of octanol was used to determine the log P of the neutral species.

Series [2] can be described thus: Concentration of saturated antagonist solutions in phosphate buffer pH 5.0. The conditions noted are these: phosphate buffer pH 5.0, stirred overnight, filtered. The protocol: The determination of in vitro skin permeation was performed with saturated solutions of the respective antagonist species. Therefore an excess of the antagonist was weighed in phosphate buffer of pH 5.0 and stirred overnight. pH was monitored and, if necessary, adjusted. The cells were incubated at 32° C. Solutions were filtrated through a syringe filter (1 μm PTFE) prior to application into the diffusion cells. Concentrations of the solutions were determined.
The determination of naloxone and naloxone N-oxide in the acceptor medium of the in vitro skin permeations samples (receptor phase) was done by HPLC with UV-detection.

Series [3] in a line: Log P by potentiometric (pH-metric) octanol/water titration. Conditions: Neutral species, 25.0 ° C., 0.15M KCl, read-out: LogP. The protocol:
as §1

Regarding `C=CCN1CC[C@]23c4c5ccc(O)c4O[C@H]2C(=O)CC[C@@]3(O)[C@H]1C5` [Naloxone, (4R,4aS,7aR,12bS)-4a,9-dihydroxy-3-prop-2-enyl-2,4,5,6,7a,13-hexahydro-1H-4,12-methanobenzofuro[3,2-e]isoquinoline-7-one, reference compound], the pKa (in general, the pH at which an ionisable group is half protonated) in series [1] (Type Acid) amounted to 9.15 ± 0.01; in series [1] (Type Base), 8.07 ± 0.01. For the same compound, in series [2], the “Concentration saturated solution c” value was 4460 µg/mL. The logP (commonly the decadic logarithm of the partition coefficient of the neutral form, usually between octanol and water) in series [3] was 1.97.
